Results as given in US9205064B2, “Methods for the diagnosis of oncological disorders using epimetabolic shifters, multidimensional intracellular molecules, or environmental influencers” (Berg LLC, priority 2009, dated 2015).

Columns and labels:
[1] = tested on: Lactate Dehydrogenase (LDH); test: Western blot of lactate dehydrogenase levels; type: cell-based, human; conditions: cancer cells
Experimental: The samples were processed and run on a 4-12% Bis-Tris Novex NuPAGE gel as described above. The gels were run, transferred and stained essentially as described above.
After transfer each blot was dried for 15-20 minutes, activated with methanol for 5 seconds, washed with water for 5 minutes, and TBST for 15 minutes. The blots were blocked for 1 hour with 5% blocking reagent in TBS-T at room temperature and then washed 3 times with TBS-T (1×-15′; 2×5′ each) and probed with the primary antibody for Lactate Dehydrogenase (abcam ab2101; polyclonal) in 5% BSA (at 1:1000 dilutions) by incubation overnight at 4 deg C. with shaking. After the overnight incubation with primary antibody for Lactate Dehydrogenase, the blots were washed 3 times with TBS-T (1×-15′; 2×5′ each) and probed with the secondary antibody (rabbit antigoat; 1:10,000 dilution) for 1 h at room temperature. After 1 h of incubation with secondary antibodies, the blots were washed 3 times with TBS-T (1×-15′; 2×5′ each) and then incubated with ECF reagent for 5 mins and then each blot scanned with 5100 Fuji Laser scanner at 25 uM resolution, 16 bit, green laser, at 400V and at 500 V. […]
The levels of LDH and PDH were determined by probing the blots successively with primary antibodies for LDH and PDH, essentially as described above. […]

SCC cells [2] = test: 2-D gel electrophoresis proteomic analysis with mass spectrometry identification; type: cell-based; conditions: 100 μM Q10, 24 hr
Excerpt: The gels were run in duplicate.

SCC cells [3] = test: Real-time PCR Heat Shock Protein Array; type: cell-based
Excerpt: The control cells were untreated cells.
RNA was quantified by measuring Optical Density at 260 nm.
Heat Shock Arrays were run for SCC cells and the data of regulated genes is summarized below in Table 13.

[4] = rats, oral; cited from earlier work
[5] = tested on: Pancreatic Cancer Cells (PaCa2); test: Real-time PCR Angiogenesis Array; type: cell-based; conditions: 100 uM Q10, various times
Experimental: Experiments were carried out essentially as described above.

COC1=C(OC)C(=O)C(C/C=C(\C)CC/C=C(\C)CC/C=C(\C)CC/C=C(\C)CC/C=C(\C)CC/C=C(\C)CC/C=C(\C)CC/C=C(\C)CC/C=C(\C)CCC=C(C)C)=C(C)C1=O [Q10, Coenzyme Q10]
Lactate Dehydrogenase (LDH) expression [1]: reduced
HSP 70, spot 116: Response (further) (SCC cells [2]): decrease at 24 hr
NM23 protein (NME1), spot 54: Response (SCC cells [2]): decrease at 24 hr
DNAJB5 mRNA Regulation (SCC cells [3]; 100 μM Q10, 6 hours): Down regulated
DNAJB13 mRNA Regulation (SCC cells [3]; 100 μM Q10, 6 hours): Down regulated
DNAJC4 mRNA Regulation (SCC cells [3]; 100 μM Q10, 6 hours): Down regulated
DNAJC5B mRNA Regulation (SCC cells [3]; 100 μM Q10, 6 hours): Down regulated
DNAJC12 mRNA Regulation (SCC cells [3]; 100 μM Q10, 6 hours): Down regulated
CCT6B mRNA Regulation (SCC cells [3]; 100 μM Q10, 24 hours): Down regulated
fraction of orally-administered CoQ10 absorbed [4]: 2-3%
mRNA of AKT1, ANGPTL4, ANGPEP, CCL2, CDH4, CXCL1, EDG1, EFNA3, EFNB2, EGF, FGF1, ID3, IL1B, 1L8, KDR, NRP1, PECAM1, PROK2, SERPINF1, SPHK1, STAB1, TGFB1, VEGFA and VEGFB [5]: modulated
